Assay results taken from patent US20160075653A1, “NEMATICIDAL N-(PHENYLCYCLOALKYL)CARBOXAMIDES AND N-(PHENYLCYCLOALKYL)THIOCARBOXAMIDES” (BAYER CROPSCIENCE AKTIENGESELLSCHAFT, priority 2013, published 2016).
Where two headings read alike, the source gives them in different places.

What was measured:
Meloidogyne incognita = Meloidogyne incognita test (MELGIN), gall formation on salad seedlings; format: in vivo; conditions: application rate 20 ppm, after 14 days
Experimental: Meioidovnve incomita—Test (MELGIN)
Solvent: 125.0 parts by weight of acetone
To produce a suitable preparation of active compound, 1 part by weight of active compound is mixed with the stated amount of solvent, and the concentrate is diluted with water to the desired concentration.
Vessels are filled with sand, a solution of the active ingredient, a suspension containing eggs and larvae of the southern root-knot nematode (Meloidogyne incognita) and salad seeds. The salad seeds germinate and the seedlings grow. Galls develop in the roots.
After 14 days the nematicidal activity is determined on the basis of the percentage of gall formation. 100% means that no galls were found; 0% means the number of galls found on the roots of the treated plants was equal to that in untreated control plants.

[1] = Measurement of log P values by HPLC on reversed phase columns (methods [a] pH 2.3, [b] pH 2.7, [c] pH 7.8); format: physicochemical; conditions: for chromatographic logP: reversed phase HPLC columns
Summary of the method: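 Retention times were converted to log P by linear interpolation between linear alkan-2-one standards (3 to 16 carbons) of known log P. Eluents, each with 10% to 95% acetonitrile gradient: phosphoric acid 0.1% at pH 2.3 [a]; formic acid 0.1% at pH 2.7, LC-MS [b]; ammonium hydrogen carbonate 0.001 molar at pH 7.8, LC-MS [c].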

[2] = HPLC reversed phase, method [b] (pH 2.7)
[3] = HPLC on reversed phase columns, method [b], pH 2.7
[4] = HPLC on reversed phase column, method [b], pH 2.7
[5] = HPLC reversed phase, method [c] pH 7.8

SMILES | nematicidal activity (percentage of gall formation; 100% = no galls) (Meloidogyne incognita) [%] | logP [1, 2] | further results
O=C(N[C@@H]1CC[C@@H]1c1c(F)cccc1C(F)(F)F)c1ccccc1I (relative stereo) [Compound 542] | 100 | 3.96^[b] | 
O=C(NC1CCC1c1ccc(Cl)cc1Cl)c1c(F)cccc1F (centres unmarked) [Compound 473] | 90 | 3.36^[b] | 
Cn1cc(C(=O)NC2CC2c2ccc(Cl)cc2)c(C(F)(F)F)n1 (centres unmarked) [Compound 11] | 90 |  | logP [1, 3]: 3.43^[b]
O=C(N[C@@H]1CC[C@@H]1c1c(F)cccc1C(F)(F)F)c1cccnc1Cl (relative stereo) [Compound 575] | 100 | 2.83^[b] | 
O=C(N[C@@H]1C[C@@H]1c1ccc(Cl)cc1Cl)c1nccnc1C(F)(F)F (relative stereo) [Compound 566] | 90 | 3.11^[b] | 
O=C(N[C@@H]1CC[C@@H]1c1c(F)cccc1C(F)(F)F)c1ncc(C(F)(F)F)cc1Cl (relative stereo) [Compound 543] | 90 | 4.13^[b] | 
O=C(NC1CCC1c1ccccc1C(F)(F)F)c1ccccc1 (centres unmarked) [Compound 426] | 100 | 3.08^[b] | 
O=C(N[C@@H]1CC[C@H]1c1cccc(F)c1C(F)(F)F)c1cccnc1C(F)(F)F (relative stereo) [Compound 642] | 90 |  | logP [1, 4]: 3.15^[b]
O=C(N[C@@H]1CC[C@@H]1c1ccccc1Cl)c1ncccc1Cl (relative stereo) [Compound 247, cis-3-chloro-N-[2-(2-chlorophenyl)cyclobutyl]pyridine-2-carboxamide] | 100 |  | chromatographic logP ([1]; HPLC-MS, method letter not given, read-out: log P): 2.79; chromatographic logP ([1]; pH 2.7, HPLC reversed phase, method [b] (pH 2.7), read-out: logP): 2.79
O=C(N[C@@H]1CC[C@@H]1c1ccc(Cl)cc1Cl)c1ccccc1Cl (relative stereo) [Compound 261] | 100 | 3.45^[b] | 
O=C(NC1CCCCC1c1ccc(Cl)cc1Cl)c1cccnc1C(F)(F)F (centres unmarked) [Compound 414] | 100 | 4.03^[b] | 
O=C(N[C@@H]1CC[C@@H]1c1c(F)cccc1C(F)(F)F)c1cccnc1C(F)(F)F (relative stereo) [Compound 577] | 100 | 3.81^[b] | 
O=C(N[C@@H]1CC[C@@H]1c1ccccc1Cl)c1ccccc1Br (relative stereo) [Compound 253] | 100 | 3.18^[b] | 
O=C(NC1CCC1c1ccccc1C(F)(F)F)c1c(F)cccc1F (centres unmarked) [Compound 430] | 100 | 3.09^[b] | 
O=C(NC1CCC1c1ccc(Cl)cc1Cl)c1cccnc1C(F)(F)F (centres unmarked) [Compound 481] | 100 | 3.20^[b] | 
O=C(NC1CCCC1c1ccccc1Cl)c1cccnc1C(F)(F)F (centres unmarked) [Compound 297] | 100 | 3.05^[b] | 
O=C(NC1CCCC1c1ccccc1Br)c1cccnc1Cl (centres unmarked) [Compound 348] | 90 | 2.80^[b] | 
O=C(N[C@@H]1CC[C@@H]1c1cccc(F)c1C(F)(F)F)c1ccccc1[N+](=O)[O-] (relative stereo) [Compound 630] | 100 |  | logP [1, 4]: 2.94^[b]
O=C(N[C@@H]1CC[C@H]1c1ccc(F)cc1C(F)(F)F)c1cccnc1C(F)(F)F (relative stereo) [Compound 487] | 90 | 3.20^[b] | 

SMILES | nematicidal activity (percentage of gall formation; 100% = no galls) (Meloidogyne incognita) [%] | logP [1, 2] | further results
O=C(N[C@@H]1CC[C@@H]1c1ccccc1C(F)(F)F)c1ccccc1[N+](=O)[O-] (relative stereo) [Compound 638] | 100 |  | logP [1, 4]: 2.93^[b]
CSc1ccccc1C(=O)N[C@@H]1CCC[C@@H]1c1ccc(F)c(F)c1 (relative stereo) [Compound 82] | 90 |  | logP [1, 3]: 3.35^[b]
O=C(NC1CCC1c1ccc(F)cc1C(F)(F)F)c1sccc1I (centres unmarked) [Compound 520] | 100 | 3.82^[b] | 
O=C(N[C@@H]1CC[C@H]1c1ccccc1Cl)c1nccnc1Cl (relative stereo) [Compound 548] | 100 | 2.81^[b] | 
O=C(NC1CC1c1ccc(Cl)cc1)c1cccnc1C(F)F (centres unmarked) [Compound 465] | 100 | 2.15^[b] | logP [1, 5]: 2.14^[c];
O=C(N[C@@H]1C[C@@H]1c1ccc(Cl)cc1)c1nccnc1C(F)(F)F (relative stereo) [Compound 532] | 100 | 2.68^[b] | logP [1, 5]: 2.65^[c];
O=C(NC1CCC1c1cc(F)ccc1C(F)(F)F)c1cccc(Cl)c1 (centres unmarked) [Compound 517] | 100 | 3.65^[b] | 
O=C(N[C@@H]1CC[C@@H]1c1cc(F)ccc1C(F)(F)F)c1cccnc1C(F)(F)F (relative stereo) [Compound 572] | 100 | 3.06^[b] | 
O=C(NC1CCCC1c1c(F)cccc1F)c1ccccc1I (centres unmarked) [Compound 322] | 90 | 3.40^[b] | 
O=C(N[C@@H]1CC[C@@H]1c1ccccc1C(F)(F)F)c1nccnc1Cl (relative stereo) [Compound 623] | 100 |  | logP [1, 4]: 2.79^[b]
O=C(NC1CCCC1c1c(F)cccc1F)c1cccnc1C(F)(F)F (centres unmarked) [Compound 313] | 100 | 2.87^[b] | 
O=C(N[C@@H]1CC[C@@H]1c1ccccc1Cl)c1cccnc1C(F)(F)F (relative stereo) [Compound 254] | 90 | 2.69^[b] | 
O=C(N[C@@H]1CC[C@@H]1c1cccc(F)c1C(F)(F)F)c1ccccc1 (relative stereo) [Compound 592] | 100 |  | logP [1, 4]: 3.01^[b]
O=C(N[C@@H]1CC[C@@H]1c1c(F)cccc1C(F)(F)F)c1ccccc1Br (relative stereo) [Compound 563] | 100 | 3.46^[b] | 
O=C(NC1CCCC1c1ccccc1Br)c1cccnc1C(F)(F)F (centres unmarked) [Compound 346] | 100 | 3.13^[b] | 
O=C(NC1CCC1c1ccccc1C(F)(F)F)c1ccc(Cl)cc1Cl (centres unmarked) [Compound 217] | 90 |  | logP ([1]; method [b], HPLC reversed phase, pH 2.7): 3.81^[b]
O=C(N[C@@H]1CC[C@@H]1c1cccc(F)c1C(F)(F)F)c1ccccc1I (relative stereo) [Compound 599] | 100 |  | logP [1, 4]: 3.39^[b]
O=C(N[C@@H]1CC[C@@H]1c1ccc(F)cc1C(F)(F)F)c1cccnc1 (relative stereo) [Compound 523] | 90 | 2.18^[b] | 
